Results reported in PubChem BioAssay (NCI).
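A five-concentration, 48-hour dose response in 96-well plates underlies each endpoint, interpolated linearly between surrounding concentrations. At the GI50, growth is halved. TGI is the concentration that stops growth completely.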

Key:
Assay in all cases: NCI tumour cell line growth inhibition, 48 h
786-0 renal = test system: 786-0 renal
A498 renal = test system: A498 renal
A549 NSCLC = test system: A549 NSCLC
ACHN renal = test system: ACHN renal
BT-549 breast = test system: BT-549 breast
CAKI-1 renal = test system: CAKI-1 renal
CCRF-CEM leukemia = test system: CCRF-CEM leukemia
COLO 205 colon = test system: COLO 205 colon
DU-145 prostate = test system: DU-145 prostate
EKVX NSCLC = test system: EKVX NSCLC
HCC-2998 colon = test system: HCC-2998 colon
HCT-116 colon = test system: HCT-116 colon
HCT-15 colon = test system: HCT-15 colon
HL-60(TB) leukemia = test system: HL-60(TB) leukemia
HOP-62 NSCLC = test system: HOP-62 NSCLC
HOP-92 NSCLC = test system: HOP-92 NSCLC
HS 578T breast = test system: HS 578T breast
HT29 colon = test system: HT29 colon
IGROV1 ovarian = test system: IGROV1 ovarian
K-562 leukemia = test system: K-562 leukemia
KM12 colon = test system: KM12 colon
LOX IMVI melanoma = test system: LOX IMVI melanoma
M14 melanoma = test system: M14 melanoma
MALME-3M melanoma = test system: MALME-3M melanoma
MCF7 breast = test system: MCF7 breast
MDA-MB-231 breast = test system: MDA-MB-231 breast
MDA-MB-435 = test system: MDA-MB-435
MDA-MB-468 breast = test system: MDA-MB-468 breast
MOLT-4 leukemia = test system: MOLT-4 leukemia
NCI-H226 lung = test system: NCI-H226 lung
NCI-H23 lung = test system: NCI-H23 lung
NCI-H460 lung = test system: NCI-H460 lung
NCI-H522 lung = test system: NCI-H522 lung
NCI/ADR-RES ovarian = test system: NCI/ADR-RES ovarian
OVCAR-3 ovarian = test system: OVCAR-3 ovarian
OVCAR-4 ovarian = test system: OVCAR-4 ovarian
OVCAR-5 ovarian = test system: OVCAR-5 ovarian
OVCAR-8 ovarian = test system: OVCAR-8 ovarian
PC-3 prostate = test system: PC-3 prostate
RXF 393 renal = test system: RXF 393 renal
SF-268 CNS = test system: SF-268 CNS
SF-295 CNS = test system: SF-295 CNS
SF-539 CNS = test system: SF-539 CNS
SK-MEL-28 melanoma = test system: SK-MEL-28 melanoma
SK-MEL-5 melanoma = test system: SK-MEL-5 melanoma
SK-OV-3 ovarian = test system: SK-OV-3 ovarian
SN12C renal = test system: SN12C renal
SNB-19 CNS = test system: SNB-19 CNS
SNB-75 CNS = test system: SNB-75 CNS
SR leukemia = test system: SR leukemia
SW-620 colon = test system: SW-620 colon
T-47D breast = test system: T-47D breast
TK-10 renal = test system: TK-10 renal
U251 CNS = test system: U251 CNS
UACC-257 melanoma = test system: UACC-257 melanoma
UACC-62 melanoma = test system: UACC-62 melanoma
UO-31 renal = test system: UO-31 renal

## CC[C@]12C=CCN3CC[C@@]4(c5ccc(OC)cc5N(C)[C@H]4[C@@](O)(C(=O)OC)[C@@H]1OC(=O)CCC[P+](c1ccc(OC)cc1)(c1ccc(OC)cc1)c1ccc(OC)cc1)[C@@H]32
786-0 renal
  GI50: 1530 nM
  TGI: 3370 nM
A498 renal
  GI50: 2020 nM
  TGI: 5670 nM
A549 NSCLC
  GI50: 591 nM
  TGI: 4390 nM
ACHN renal
  GI50: 2760 nM
  TGI: 7890 nM
BT-549 breast
  GI50: 532 nM
  TGI: 1350 nM
CAKI-1 renal
  GI50: 4360 nM
  TGI: 9190 nM
CCRF-CEM leukemia
  GI50: 582 nM
  TGI: 2020 nM
COLO 205 colon
  GI50: 192 nM
  TGI: 369 nM
DU-145 prostate
  GI50: 635 nM
  TGI: 4340 nM
EKVX NSCLC
  GI50: 737 nM
  TGI: 3350 nM
HCC-2998 colon
  GI50: 446 nM
  TGI: 1570 nM
HCT-116 colon
  GI50: 469 nM
  TGI: 1660 nM
HCT-15 colon
  GI50: 2510 nM
  TGI: 7000 nM
HL-60(TB) leukemia
  GI50: 237 nM
  TGI: 800 nM
HOP-62 NSCLC
  GI50: 1040 nM
  TGI: 2670 nM
HOP-92 NSCLC
  GI50: 279 nM
  TGI: 1080 nM
HS 578T breast
  GI50: 1180 nM
  TGI: 3970 nM
HT29 colon
  GI50: 284 nM
  TGI: 859 nM
IGROV1 ovarian
  GI50: 455 nM
  TGI: 1600 nM
K-562 leukemia
  GI50: 556 nM
  TGI: 2130 nM
KM12 colon
  GI50: 464 nM
  TGI: 1560 nM
LOX IMVI melanoma
  GI50: 490 nM
  TGI: 1590 nM
M14 melanoma
  GI50: 638 nM
  TGI: 1870 nM
MALME-3M melanoma
  GI50: 224 nM
  TGI: 536 nM
MCF7 breast
  GI50: 383 nM
  TGI: 1430 nM
MDA-MB-231 breast
  GI50: 254 nM
  TGI: 654 nM
MDA-MB-435
  GI50: 381 nM
  TGI: 1420 nM
MDA-MB-468 breast
  GI50: 166 nM
  TGI: 491 nM
MOLT-4 leukemia
  GI50: 621 nM
  TGI: 2380 nM
NCI-H226 lung
  GI50: 1430 nM
  TGI: 3870 nM
NCI-H23 lung
  GI50: 472 nM
  TGI: 1660 nM
NCI-H460 lung
  GI50: 666 nM
  TGI: 2360 nM
NCI-H522 lung
  GI50: 334 nM
  TGI: 1180 nM
NCI/ADR-RES ovarian
  GI50: 18100 nM
  TGI: 49700 nM
OVCAR-3 ovarian
  GI50: 422 nM
  TGI: 1570 nM
OVCAR-4 ovarian
  GI50: 537 nM
  TGI: 3440 nM
OVCAR-5 ovarian
  GI50: 686 nM
  TGI: 2210 nM
OVCAR-8 ovarian
  GI50: 1420 nM
  TGI: 3870 nM
PC-3 prostate
  GI50: 414 nM
  TGI: 2150 nM
RXF 393 renal
  GI50: 362 nM
  TGI: 1340 nM
SF-268 CNS
  GI50: 318 nM
  TGI: 1460 nM
SF-295 CNS
  GI50: 1250 nM
  TGI: 3030 nM
SF-539 CNS
  GI50: 622 nM
  TGI: 1670 nM
SK-MEL-28 melanoma
  GI50: 477 nM
  TGI: 1640 nM
SK-MEL-5 melanoma
  GI50: 722 nM
  TGI: 1870 nM
SK-OV-3 ovarian
  GI50: 595 nM
  TGI: 1680 nM
SN12C renal
  GI50: 458 nM
  TGI: 1510 nM
SNB-19 CNS
  GI50: 341 nM
  TGI: 1350 nM
SNB-75 CNS
  GI50: 178 nM
  TGI: 735 nM
SR leukemia
  GI50: 397 nM
  TGI: 1780 nM
SW-620 colon
  GI50: 557 nM
  TGI: 2050 nM
T-47D breast
  GI50: 309 nM
  TGI: 1600 nM
TK-10 renal
  GI50: 1400 nM
  TGI: 2870 nM
U251 CNS
  GI50: 360 nM
  TGI: 1370 nM
UACC-257 melanoma
  GI50: 489 nM
  TGI: 1760 nM
UACC-62 melanoma
  GI50: 396 nM
  TGI: 1170 nM
UO-31 renal
  GI50: 3090 nM
  TGI: 15500 nM
